Data published in patent US20140329863A1 (priority 2011, published 2014).
Like-named read-outs stand apart in the source and are kept apart here.

Key:
[1] = tested on: PrP^Sc in dividing ScN2a-cl3 cells; format: cell-based, mouse; conditions: for Inhibition of Baseline PrP^5c (%) Dividing Cells ELISA: SPC assay
[2] = tested on: PrP^Sc in nondividing ScN2a-cl3 cells; format: cell-based, mouse; conditions: SPC assay, nondividing cells
[3] = Table 29, 2-AMT analogs tested for potency, usually n = 3 or more
[4] = read-out: Potency (μM) ELISA (EC50), FDA-approved drugs, ScN2a-c13 assay, dividing cells
[5] = FDA-approved drugs, ScN2a-c13 assay, dividing cells, read-out: Potency (μM) ELISA (EC50)

Work on `Cc1cccc(Nc2nc(-c3ccncc3)cs2)n1` [IND7, (6-Methyl-pyridin-2-yl)-(4-pyridin-4-yl-thiazol-2-yl)-amine] yielded an EC50 ([1]; AMT analogs tested for potency) of 1 µM and an EC50 [1, 3] of 1 µM.
With `Cc1ccc2[nH]c3c(c2c1)CCCC3NC1CCCCC1` (stereo not shown) [IND-5381] the “Dividing Cells V (cell viability percentages)” value (N2a-cl3 cells) was 12%, the “Non-dividing Cells V (cell viability percentages)” value (N2a-cl3 cells) was 16% and the “Inhibition of Baseline PrP^5c (%) Dividing Cells ELISA” value (shortened to “Inhibition … (%) Dividing Cells ELISA”) ([1]; dividing cells) was 27%. The “Inhibition of Baseline PrP^5c (%) Non-dividing Cells ELISA” value [2] was 48%.
`CN1CCc2cccc3c2[C@H]1Cc1ccc(O)c(O)c1-3` [Apomorphine] was tested, and the EC50 [1, 4] was > 10 µM.
For `CC(=O)c1ccc2c(c1)N(CCCN(C)C)c1ccccc1S2` [Acepromazine], the “Potency (μM) Cell Viability” value (N2a-cl3 cells; mouse) was >10 µM and the EC50 [1, 4] was 6.93 µM.
In the case of `CCOc1ccc(/N=N/c2ccc(N)cc2N)cc1` [Ethoxazine], the “Potency (μM) Cell Viability” value (N2a-cl3 cells) is reported as >10 µM and the EC50 [1, 5] is reported as 4.76 µM.
`CC(=O)c1ccc(N2CCN(Cc3cccc(Br)c3)CC2)cc1` [IND-7046] was tested, and the “Dividing Cells V (cell viability percentages)” value (N2a-cl3 cells) was 14%, the “Non-dividing Cells V (cell viability percentages)” value (N2a-cl3 cells) was 2% and the “Inhibition … (%) Dividing Cells ELISA” value ([1]; dividing cells) was 67%. The “Inhibition of Baseline PrP^5c (%) Non-dividing Cells ELISA” value [2] was 39%.
In the case of `CN1C[C@H](C(=O)N[C@]2(C)O[C@@]3(O)[C@@H]4CCCN4C(=O)[C@H](Cc4ccccc4)N3C2=O)C[C@@H]2c3cccc4[nH]cc(c34)C[C@H]21` [Dihydroergotamine], the “Potency (μM) Cell Viability” value (N2a-cl3 cells; mouse) is reported as >10 µM and the EC50 [1, 4] is reported as 6.44 µM.
For `O=C(Nc1ccc(Cl)cc1)Nc1ccc(C(F)(F)F)cc1Cl` [IND-19238], the “Non-dividing Cells V (cell viability percentages)” value (N2a-cl3 cells) was 9%, the “Inhibition … (%) Dividing Cells ELISA” value ([1]; dividing cells) was 17% and the “Inhibition of Baseline PrP^5c (%) Non-dividing Cells ELISA” value [2] was 63%.
With `COc1ccc2cc1Oc1ccc(cc1)C[C@H]1c3cc(c(OC)cc3CCN1C)Oc1c(OC)c(OC)cc3c1[C@H](C2)N(C)CC3` [Tetrandine] the “Potency (μM) Cell Viability” value (N2a-cl3 cells) was 5.009 µM and the EC50 [1, 5] was 2.15 µM.
For `COc1ccc(-c2csc(Nc3cc(C)ccn3)n2)cc1OC` [IND42, [4-(3,4-Dimethoxy-phenyl)-thiazol-2-yl]-(4-methyl-pyridin-2-yl)-amine], the EC50 ([1]; AMT analogs tested for potency) was 1 µM and the EC50 [1, 3] was 1 µM.
`COc1ccc2[nH]c3c(OC)ncnc3c2c1` [IND-22103] was tested, and the “Inhibition … (%) Dividing Cells ELISA” value ([1]; dividing cells) was 81% and the “Inhibition of Baseline PrP^5c (%) Non-dividing Cells ELISA” value [2] was 37%.
For `Cc1ccc(Nc2nc(-c3c(-c4ccccc4)noc3C)cs2)nc1` [IND36, [4-(5-Methyl-3-phenyl-isoxazol-4-yl)-thiazol-2-yl]-(5-methyl-pyridin-2-yl)-amine], the EC50 ([1]; AMT analogs tested for potency) was > 32 µM and the EC50 [1, 3] was > 32 µM.
Enoxaparin was tested, and the “Potency Cell Viability, mg/L” value (N2a-cl3 cells) was >10 (mg/L).
Work on `COc1ccc(-c2csc(Nc3cc4ccccc4cn3)n2)cc1` [IND86, Isoquinolin-3-yl-[4-(4-methoxy-phenyl)-thiazol-2-yl]-amine] yielded an EC50 ([1]; AMT analogs tested for potency) of 0.342 µM and an EC50 [1, 3] of 0.342 µM.
`COc1ccccc1OCCNCC(O)COc1cccc2[nH]c3ccccc3c12` (stereo not shown) [Carvedilol] was tested, and the “Potency (μM) Cell Viability” value (N2a-cl3 cells; mouse) was 6.096 µM and the EC50 [1, 4] was 2.28 µM.
In the case of `CC(=O)c1ccc(N2CCN(Cc3c(C)n(C)n(-c4ccccc4)c3=O)CC2)cc1` [IND-19672], the “Inhibition … (%) Dividing Cells ELISA” value ([1]; dividing cells) is reported as 64% and the “Inhibition of Baseline PrP^5c (%) Non-dividing Cells ELISA” value [2] is reported as 35%.
Work on `Cc1ccc(Nc2nc(-c3ccncc3)cs2)nc1` [IND29, (5-Methyl-pyridin-2-yl)-(4-pyridin-4-yl-thiazol-2-yl)-amine] yielded an EC50 ([1]; AMT analogs tested for potency) of 1.57 µM and an EC50 [1, 3] of 1.57 µM.
